Assay results from patent publication US6479435B1, “Diaryl ethers and processes for their preparation and herbicidal and desiccant compositions containing them” (ISK Americas Incorporated, priority 1997, dated 2002).

How the values were obtained:
Type in all cases: in vivo
[1] = tested on: Johnsongrass (Sorghum halepense, SORHA); test: Pre-emerge greenhouse herbicide test, phytotoxicity rating; settings: Sorghum halepense, pre-emergence, 336 h, 14 days after application, rating scale 0-100; for pest or weed control at 125 g/ha: Rate 125 g al/ha; for pest or weed control at 500 g/ha: Rate 500 g al/ha
In short: (§1)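 Visual 0–100 injury rating (100 = all plants dead) taken 14 days after treatment. Rates of 125–1000 g ai/ha in acetone, 187 l/ha, were sprayed onto soil one day post-sowing; pots were surface-watered to incorporate, then bottom-watered.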

[2] = tested on: barnyardgrass (Echinochloa crusgalli, ECHCG); test: as above; settings: Echinochloa crus-galli, pre-emergence, 336 h, 14 days after application, rating scale 0-100; for pest or weed control at 125 g/ha: Rate 125 g al/ha; for pest or weed control at 500 g/ha: Rate 500 g al/ha
In short: as §1

[3] = tested on: green foxtail (Setaria viridis, SETVI); test: as above; settings: Setaria viridis, pre-emergence, 336 h, 14 days after application, rating scale 0-100; for pest or weed control at 125 g/ha: Rate 125 g al/ha; for pest or weed control at 500 g/ha: Rate 500 g al/ha
In short: as §1

[4] = tested on: ivyleaf morningglory (Ipomoea hederacea, IPOHE); test: as above; settings: Ipomoea, pre-emergence, 336 h, 14 days after application, rating scale 0-100; for pest or weed control at 125 g/ha: Rate 125 g al/ha; for pest or weed control at 500 g/ha: Rate 500 g al/ha
In short: as §1

[5] = tested on: lambsquarters (Chenopodium album, CHEAL); test: as above; settings: Chenopodium album, pre-emergence, 336 h, 14 days after application, rating scale 0-100; for pest or weed control at 125 g/ha: Rate 125 g al/ha; for pest or weed control at 500 g/ha: Rate 500 g al/ha
In short: as §1

[6] = tested on: large crabgrass (Digitaria sanguinalis, DIGSA); test: as above; settings: Digitaria sanguinalis, pre-emergence, 336 h, 14 days after application, rating scale 0-100; for pest or weed control at 125 g/ha: Rate 125 g al/ha; for pest or weed control at 500 g/ha: Rate 500 g al/ha
In short: as §1

[7] = tested on: redroot pigweed (Amaranthus retroflexus, AMARE); test: as above; settings: Amaranthus retroflexus, pre-emergence, 336 h, 14 days after application, rating scale 0-100; for pest or weed control at 125 g/ha: Rate 125 g al/ha; for pest or weed control at 500 g/ha: Rate 500 g al/ha
In short: as §1

[8] = tested on: sicklepod (Cassia obtusifolia, CASOB); test: as above; settings: Senna obtusifolia, pre-emergence, 336 h, 14 days after application, rating scale 0-100; for pest or weed control at 125 g/ha: Rate 125 g al/ha; for pest or weed control at 500 g/ha: Rate 500 g al/ha
In short: as §1

[9] = tested on: velvetleaf (Abutilon theophrasti, ABUTH); test: as above; settings: Abutilon theophrasti, pre-emergence, 336 h, 14 days after application, rating scale 0-100; for pest or weed control at 125 g/ha: Rate 125 g al/ha; for pest or weed control at 500 g/ha: Rate 500 g al/ha
In short: as §1

[10] = tested on: Johnsongrass (Sorghum halepense, SORHA); test: Post-emerge greenhouse herbicide test, phytotoxicity rating; settings: Sorghum halepense, post-emergence, 336 h, 14 days after application, scale 0-100; for pest or weed control at 63 g/ha: rate 63 g ai/ha; for pest or weed control at 500 g/ha: rate 500 g ai/ha
In short: (§2)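 Scores use a 0 (no damage) to 100 (complete kill) scale, taken 14 days after a foliar spray. Acetone solutions with 0.25% v/v non-ionic surfactant were applied by track sprayer at 187 l/ha and 63-1000 g ai/ha to bottom-watered 2-3 leaf plants.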

[11] = tested on: green foxtail (Setaria viridis, SETVI); test: as above; settings: Setaria viridis, post-emergence, 336 h, 14 days after application, scale 0-100; for pest or weed control at 63 g/ha: rate 63 g ai/ha; for pest or weed control at 500 g/ha: rate 500 g ai/ha
In short: as §2

[12] = tested on: lambsquarters (Chenopodium album, CHEAL); test: as above; settings: Chenopodium album, post-emergence, 336 h, 14 days after application, scale 0-100; for pest or weed control at 63 g/ha: rate 63 g ai/ha; for pest or weed control at 500 g/ha: rate 500 g ai/ha
In short: as §2

[13] = tested on: large crabgrass (Digitaria sanguinalis, DIGSA); test: as above; settings: Digitaria sanguinalis, post-emergence, 336 h, 14 days after application, scale 0-100; for pest or weed control at 63 g/ha: rate 63 g ai/ha; for pest or weed control at 500 g/ha: rate 500 g ai/ha
In short: as §2

[14] = tested on: redroot pigweed (Amaranthus retroflexus, AMARE); test: as above; settings: Amaranthus retroflexus, post-emergence, 336 h, 14 days after application, scale 0-100; for pest or weed control at 63 g/ha: rate 63 g ai/ha; for pest or weed control at 500 g/ha: rate 500 g ai/ha
In short: as §2

[15] = tested on: sicklepod (Cassia obtusifolia, CASOB); test: as above; settings: Senna obtusifolia, post-emergence, 336 h, 14 days after application, scale 0-100; for pest or weed control at 63 g/ha: rate 63 g ai/ha; for pest or weed control at 500 g/ha: rate 500 g ai/ha
In short: as §2

Structure (SMILES)	pest or weed control at 125 g/ha [1]	pest or weed control at 500 g/ha [1]	pest or weed control at 125 g/ha [2]	pest or weed control at 500 g/ha [2]	pest or weed control at 125 g/ha [3]	pest or weed control at 500 g/ha [3]	pest or weed control at 125 g/ha [4]	pest or weed control at 500 g/ha [4]	pest or weed control at 125 g/ha [5]	pest or weed control at 500 g/ha [5]	pest or weed control at 125 g/ha [6]	pest or weed control at 500 g/ha [6]	pest or weed control at 125 g/ha [7]	pest or weed control at 500 g/ha [7]	pest or weed control at 125 g/ha [8]	pest or weed control at 500 g/ha [8]	pest or weed control at 125 g/ha [9]	pest or weed control at 500 g/ha [9]	pest or weed control at 500 g/ha [10]	pest or weed control at 500 g/ha [11]	other results
Cc1nsc(Oc2cc(-n3c(=O)cc(C(F)(F)F)n(N)c3=O)c(F)cc2Cl)c1[N+](=O)[O-] [Compound 9-14, 1-Amino-3-[4-Chloro-2-fluoro-5-(3-methyl-4-nitroisothiazol-5-yloxy)phenyl]-6-trifluoromethyl-1,2,3,4-tetrahydropyrimidine-2,4-dione]	95%	100%	95%	90%	100%	100%	100%	100%	100%	100%	100%	100%	100%	100%	100%	90%	100%	100%	100%	100%	pest or weed control at 63 g/ha [10]: 40%; pest or weed control at 63 g/ha [11]: 80%; pest or weed control at 63 g/ha [12]: 80%; pest or weed control at 500 g/ha [12]: 100%; pest or weed control at 63 g/ha [13]: 30%; pest or weed control at 500 g/ha [13]: 100%; pest or weed control at 63 g/ha [14]: 100%; pest or weed control at 500 g/ha [14]: 100%; pest or weed control at 63 g/ha [15]: 60%; pest or weed control at 500 g/ha [15]: 100%
Nn1c(C(F)(F)F)cc(=O)n(-c2cc(Oc3ccccn3)c(Cl)cc2F)c1=O [Compound 9-15, 1-amino-3-[4-chloro-2-fluoro-5-(2pyridyloxy)phenyl]-6-trifluoromethyl-1,2,3,4-tetrahydropyrimidine-2,4-dione]	100%	100%	100%	100%	100%	100%	100%	100%	100%	100%	100%	10%	100%	100%	95%	100%	100%	100%	100%	100%	pest or weed control at 125 g/ha ([10]; rate 125 g ai/ha): 95%; pest or weed control at 125 g/ha ([11]; rate 125 g ai/ha): 95%; pest or weed control at 125 g/ha ([12]; rate 125 g ai/ha): 100%; pest or weed control at 500 g/ha [12]: 100%; pest or weed control at 125 g/ha ([13]; rate 125 g ai/ha): 90%; pest or weed control at 500 g/ha [13]: 100%; pest or weed control at 125 g/ha ([14]; rate 125 g ai/ha): 100%; pest or weed control at 500 g/ha [14]: 100%; pest or weed control at 125 g/ha ([15]; rate 125 g ai/ha): 100%; pest or weed control at 500 g/ha [15]: 100%
Nn1c(C(F)(F)F)cc(=O)n(-c2cc(Oc3ncccn3)c(Cl)cc2F)c1=O [Compound 9-16, 1-Amino-3-[4-chloro-2-fluoro-5-(2-pyrimidyloxy)phenyl]-6-trifluoromethyl-1,2,3,4-tetrahydropyrimidine-2,4-dione]	100%	100%	100%	100%	100%	100%	100%	100%	100%	100%	100%	100%	100%	100%	100%	100%	100%	100%	100%	100%	pest or weed control at 63 g/ha [10]: 100%; pest or weed control at 63 g/ha [11]: 100%; pest or weed control at 63 g/ha [12]: 100%; pest or weed control at 500 g/ha [12]: 100%; pest or weed control at 63 g/ha [13]: 100%; pest or weed control at 500 g/ha [13]: 100%; pest or weed control at 63 g/ha [14]: 100%; pest or weed control at 500 g/ha [14]: 100%; pest or weed control at 63 g/ha [15]: 100%; pest or weed control at 500 g/ha [15]: 100%
Nn1c(C(F)(F)F)cc(=O)n(-c2cc(Oc3nccc(Cl)n3)c(Cl)cc2F)c1=O [Compound 9-17, 1-Amino-3-[4-chloro-2-fluoro-5-(4-chloro-2-pyrimidyloxy)phenyl]-6-trifluoromethyl-1,2,3,4-tetrahydropyrimidine-2,4-dione]	30%	90%	20%	100%	90%	100%	20%	100%	100%	100%	30%	100%	100%	100%	20%	70%	100%	100%	80%	10%	pest or weed control at 63 g/ha [10]: 0%; pest or weed control at 63 g/ha [11]: 10%; pest or weed control at 63 g/ha [12]: 80%; pest or weed control at 500 g/ha [12]: 90%; pest or weed control at 63 g/ha [13]: 10%; pest or weed control at 500 g/ha [13]: 10%; pest or weed control at 63 g/ha [14]: 95%; pest or weed control at 500 g/ha [14]: 95%; pest or weed control at 63 g/ha [15]: 0%; pest or weed control at 500 g/ha [15]: 0%
